Experimental data published in ChEMBL document CHEMBL4602636, “Synthesis and in vitro antitumor evaluation of honokiol derivatives” (Bioorg Med Chem Lett, 2020).
Active and inactive are the calls of the source. No cut-off for these calls is given here.

Assays:
[1] = test system: MCF7; assay: Antiproliferative activity against human MCF7 cells assessed as growth inhibition after 72 hrs by MTT assay; format: functional, cell-based; conditions: MCF7, 72 h
[2] = test system: I10; assay: Antiproliferative activity against mouse I10 cells assessed as growth inhibition after 72 hrs by MTT assay; format: functional, cell-based; conditions: I10, 72 h
[3] = test system: CNE2Z; assay: Antiproliferative activity against human CNE2Z cells assessed as growth inhibition after 72 hrs by MTT assay; format: functional, cell-based
[4] = test system: I10; assay: Downregulation of MMP-2 expression in mouse I10 cells at 20 uM after 24 hrs Western blot analysis; format: functional, cell-based
[5] = test system: I10; assay: Antiproliferative activity against mouse I10 cells at 20 uM after 24 to 72 hrs by MTT assay relative to control; format: functional
[6] = test system: I10; assay: Antiinvasive activity against mouse I10 cells assessed as reduction in number of invaded cells at 2.5 uM after 36 hrs under hypoxia condition by crystal violet staining based transwell assay; format: functional, cell-based
[7] = test system: I10; assay: Inhibition of cell migration in mouse I10 cells after 24 hrs under hypoxia condition by scratch wound healing assay; format: functional, cell-based
[8] = test system: I10; assay: Inhibition of cell migration in mouse I10 cells at 10 uM after 24 hrs under hypoxia condition by scratch wound healing assay; format: functional, cell-based
[9] = test system: I10; assay: Downregulation of HIF1alpha expression in mouse I10 cells at 20 uM after 24 hrs Western blot analysis; format: functional, cell-based
[10] = test system: I10; assay: Antiinvasive activity against mouse I10 cells incubated for 36 hrs under hypoxia condition by crystal violet staining based transwell assay; format: functional, cell-based
[11] = test system: I10; assay: Antiproliferative activity against mouse I10 cells at 2.5 to 20 uM by MTT assay; format: functional, cell-based; conditions: TDE = time-dependent effect
[12] = test system: I10; assay: Downregulation of MMP-9 expression in mouse I10 cells at 20 uM after 24 hrs Western blot analysis; format: functional, cell-based
[13] = test system: I10; assay: Antiproliferative activity against mouse I10 cells after 24 to 72 hrs by MTT assay; format: functional, cell-based

| Compound | IC50 [1] [µM] | IC50 [2] [µM] | IC50 [3] [µM] | further results |
| --- | --- | --- | --- | --- |
| C=CCc1ccc(OCC)c(-c2ccc(O)c(CC=C)c2)c1 | 19.9 | 24.7 | 20.4 | – |
| C=CCc1ccc(O)c(-c2ccc(OCc3ccc(Cl)cc3Cl)c(CC=C)c2)c1 | 14.7 | 10.4 | 11.3 | Activity [4]: Active; Activity [5]: 100%; Activity [6]: Active; inhibition [7]: Dose-dependent effect; inhibition [8]: Active; Activity [9]: Active; Activity [10]: Dose-dependent effect; Activity [11]: Tde; Activity [12]: Active; Activity [13]: Dose-dependent effect |
| C=CCc1ccc(OCc2c(Cl)cccc2Cl)c(-c2ccc(OCc3c(Cl)cccc3Cl)c(CC=C)c2)c1 | > 50 | > 50 | > 50 | – |
| C=CCc1ccc(OCc2ccccc2)c(-c2ccc(OCc3ccccc3)c(CC=C)c2)c1 | > 50 | > 50 | > 50 | – |
| C=CCc1ccc(OCC)c(-c2ccc(OCC)c(CC=C)c2)c1 | > 50 | > 50 | > 50 | – |
| C=CCc1ccc(OCc2ccc(Cl)c(Cl)c2)c(-c2ccc(OCc3ccc(Cl)c(Cl)c3)c(CC=C)c2)c1 | > 50 | > 50 | > 50 | – |
| C=CCc1ccc(OCc2ccc(Cl)cc2Cl)c(-c2ccc(OCc3ccc(Cl)cc3Cl)c(CC=C)c2)c1 | > 50 | > 50 | > 50 | – |
| C=CCc1ccc(OC)c(-c2ccc(O)c(CC=C)c2)c1 | 37.5 | 38 | 30.3 | – |
| C=CCc1ccc(OC)c(-c2ccc(OC)c(CC=C)c2)c1 | > 50 | > 50 | > 50 | – |
| C=CCc1ccc(O)c(-c2ccc(OCc3c(Cl)cccc3Cl)c(CC=C)c2)c1 | 11.5 | 16.6 | 16.4 | – |
| C=CCc1ccc(O)c(-c2ccc(OCc3ccccc3)c(CC=C)c2)c1 | 23.2 | 29.8 | 30.3 | – |
| C=CCc1ccc(O)c(-c2ccc(O)c(CC=C)c2)c1 [HONOKIOL] | 41.8 | 31.1 | 31.3 | – |
| C=CCc1ccc(O)c(-c2ccc(OCC)c(CC=C)c2)c1 | 26.3 | 21.4 | 24.1 | – |
| C=CCc1ccc(O)c(-c2ccc(OCc3ccc(Cl)c(Cl)c3)c(CC=C)c2)c1 | 15.3 | 12.3 | 17.8 | – |
| C=CCc1ccc(OCc2ccc(Cl)c(Cl)c2)c(-c2ccc(O)c(CC=C)c2)c1 | 17.5 | 12.2 | 14.2 | – |
| C=CCc1ccc(OCc2c(Cl)cccc2Cl)c(-c2ccc(O)c(CC=C)c2)c1 | 19.4 | 17.2 | 19.9 | – |
| C=CCc1ccc(O)c(-c2ccc(OC)c(CC=C)c2)c1 [METHYLHONOKIOL] | 24.7 | 26.5 | 25.5 | – |
| C=CCc1ccc(OCc2ccccc2)c(-c2ccc(O)c(CC=C)c2)c1 | 22.3 | 21.8 | 24 | – |
| C=CCc1ccc(OCc2ccc(Cl)cc2Cl)c(-c2ccc(O)c(CC=C)c2)c1 | 27.4 | 21.1 | 24.2 | – |
